The record followed here is patent US20150148311A1, “NON-SYSTEMIC TGR5 AGONISTS” (Ardelyx, Inc., priority 2011, published 2015).

The target of data set [1] is T1, endogenously expressed TGR5 in NCI H716 (Homo sapiens, UniProt Q8TDU6).
T1 construct: human caecum carcinoma cell line NCI-H716 which endogenously expresses human TGR5; endogenous in cells; host or cells: NCI-H716
T1 sequence (Q8TDU6 1-330): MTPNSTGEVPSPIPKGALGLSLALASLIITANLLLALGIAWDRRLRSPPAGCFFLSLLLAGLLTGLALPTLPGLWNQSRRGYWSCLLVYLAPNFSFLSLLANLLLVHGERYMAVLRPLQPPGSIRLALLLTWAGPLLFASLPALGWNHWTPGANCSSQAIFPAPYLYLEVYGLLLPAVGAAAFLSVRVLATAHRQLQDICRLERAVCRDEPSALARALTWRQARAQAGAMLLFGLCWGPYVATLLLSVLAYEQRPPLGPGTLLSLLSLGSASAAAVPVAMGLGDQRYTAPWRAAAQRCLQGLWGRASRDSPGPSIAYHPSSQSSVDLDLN
Kind of data set: Cell-based TGR5 assay, NCI-H716 cells endogenously expressing human TGR5, cAMP by HTRF. Conditions: 30 min at 37 C, 22 nM to 50 μM, read-out: pEC50 endogenously expressed TGR5 in NCI H716 (converted). An outline of the steps: (§1)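 cAMP HTRF read-out, converted to concentration via standard curve, after a 30 min, 37 °C compound exposure in HBSS with 10 mM HEPES pH 7.4 and 0.5 mM IBMX, compounds serially diluted 3-fold from 10 mM DMSO stock then 100-fold. Cells: stable human TGR5 HEK293, or NCI-H716 expressing TGR5 endogenously.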
(Time-resolved FRET reads energy transfer from a long-lived donor to a nearby acceptor.)

The next data set concerns the target T2, human FXR (Homo sapiens, UniProt Q96RI1).
T2 construct: purchased Indigo Biosciences (State College, Pa.)
T2 sequence (Q96RI1 1-486): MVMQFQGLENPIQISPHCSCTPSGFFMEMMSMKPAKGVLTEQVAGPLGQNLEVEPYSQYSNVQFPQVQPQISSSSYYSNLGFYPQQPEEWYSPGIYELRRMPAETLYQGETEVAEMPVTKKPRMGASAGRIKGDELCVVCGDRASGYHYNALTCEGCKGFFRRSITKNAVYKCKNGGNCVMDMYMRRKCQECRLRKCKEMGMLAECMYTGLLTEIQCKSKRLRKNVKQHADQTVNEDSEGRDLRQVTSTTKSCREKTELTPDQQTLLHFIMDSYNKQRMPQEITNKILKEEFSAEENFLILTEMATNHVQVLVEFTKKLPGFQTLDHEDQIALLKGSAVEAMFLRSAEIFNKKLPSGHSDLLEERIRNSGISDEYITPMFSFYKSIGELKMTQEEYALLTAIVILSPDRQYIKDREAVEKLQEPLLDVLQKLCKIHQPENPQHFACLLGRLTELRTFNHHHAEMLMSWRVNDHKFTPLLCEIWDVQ
Kind of data set: FXR counter screen, cell-based luciferase reporter assay. The conditions noted are these: cells expressing human FXR and FXR-responsive luciferase reporter, 0.4 to 50 μM test compound; read-out: pEC50 human FXR (converted). The method, then:
FXR: The ability of test compounds to activate FXR (NR1H4) was measured using a cell-based assay kit obtained from Indigo Biosciences (State College, Pa.).
Background: Counterscreens check selectivity or assay interference.

A further data set has as its target T3, human IBAT (Homo sapiens, UniProt Q12908).
T3 construct: expressed in transfected cells; host or cells: HEK293
T3 sequence (Q12908 1-348): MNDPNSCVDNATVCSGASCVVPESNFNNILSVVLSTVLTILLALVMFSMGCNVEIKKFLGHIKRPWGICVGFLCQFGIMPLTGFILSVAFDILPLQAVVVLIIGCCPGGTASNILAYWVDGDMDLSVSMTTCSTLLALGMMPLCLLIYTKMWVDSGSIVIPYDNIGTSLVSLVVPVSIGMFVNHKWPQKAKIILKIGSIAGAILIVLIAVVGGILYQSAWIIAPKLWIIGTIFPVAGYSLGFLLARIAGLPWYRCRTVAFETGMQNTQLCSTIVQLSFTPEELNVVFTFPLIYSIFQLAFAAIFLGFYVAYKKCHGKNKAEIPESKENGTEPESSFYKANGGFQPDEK
Kind of data set: IBAT counter screen, [3H]taurocholic acid uptake in IBAT-transfected HEK293 cells. It counts as cell-based. Conditions: read-out: pEC50 human IBAT (converted). The method, then: Following a 40-min incubation, the solution was removed, and the cells were washed twice with uptake buffer. Cells were lysed by addition of 20 μL 0.1% Tween 80 followed by 100 μL scintillation fluid and counted using a TopCount (Perkin Elmer).

A further data set concerns the target T4, human TGR5 (Homo sapiens, UniProt Q8TDU6).
T4 construct: expressed in transfected cells
T4 sequence (Q8TDU6 1-330): T1 sequence (Q8TDU6 1-330)
Kind of data set: Cell-based TGR5 assay, HEK293 cells stably expressing human TGR5, cAMP by HTRF. Conditions: HEK293 cells stably expressing human TGR5, 30 min at 37 C, 0.05 nM to 10 μM, read-out: pEC50 Human TGR5 (converted). The procedure, abridged: as §1

Data set [2] in a line: Compound concentration in gall bladder, LC-MS/MS, 8 h post dose. It counts as in vivo. The conditions noted are these: 30 mg/kg. The procedure, abridged: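 Gallbladder with its contents excised from isoflurane-anesthetized mice 8 h after dosing and homogenized in water. Homogenate diluted 1:5, precipitated with acetonitrile and measured by LC-MS/MS. Levels interpolated from per-compound standard curves in vehicle-treated gallbladder homogenate.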

Data set [3] in a line: Compound plasma concentration, LC-MS/MS, 8 h post dose. Conditions: 30 mg/kg. It counts as in vivo. The procedure, abridged: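 Blood was taken from the left ventricle 8 h after dosing, under isoflurane anesthesia, into EDTA tubes containing aprotinin and DPPIV inhibitor. Plasma was protein-precipitated with acetonitrile containing an internal standard, and supernatants were analyzed by LC-MS/MS against a plasma standard curve.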

A further data set relates to C57BL/6 male mice. Kind of data set: In vivo gallbladder measurement (weight) 8 h post dose. The conditions noted are these: 30 mg/kg. From the text: (§2) Eight hours later, each mouse was heavily anesthetized with isoflurane, the peritoneal cavity was opened and the gallbladder, with its entire contents, was carefully excised and weighed. Blood was collected from the left ventricle of the heart and processed to plasma in EDTA-coated tubes containing aprotinin and DPPIV inhibitor for measurement of total GLP-1 (K150FCC; Meso Scales Discovery, Gaithersburg Md.).

Another data set deals with total GLP-1. Kind of data set: In vivo GLP-1 secretion, plasma total GLP-1 8 h post dose. Conditions: Mus musculus, C57BL/6 male mice, food removed, plasma total GLP-1 eight hours after dosing, read-out: GLP-1 fold change over vehicle, Mean.
Source text: as §2

The nature of data set [4]: Compound concentration in gallbladder 16 hours post dose. Type of data set: in vivo. The conditions noted are these: 30 mg/kg; for Number of Mice with Gallbladder Concentration < LLOQ: mice below LLOQ / mice in group; for concentration at 16 h: male, C57BL/6, mouse, gallbladder (homogenate, with contents), mice, gallbladder, read-out: Mean Example Gallbladder Concentration. As to the method: Compound concentrations in the gall bladder were determined as follows: each mouse was heavily anesthetized with isoflurane, the peritoneal cavity was opened and the gallbladder, with its entire contents, was carefully excised. After harvest, gall bladders were homogenized in 100 μL water using a micro-homogenizer. Samples of homogenate were diluted 1:5 in water and precipitated with three volumes of neat acetonitrile. After centrifugation, supernatants were analyzed by LC-MS/MS. The level of test compound present in gall bladder samples was interpolated from a standard curve for each individual compound prepared in a matrix of gallbladder homogenate from vehicle treated animals.
C57BL/6 male mice on regular chow had food removed (to prevent gallbladder emptying) and were dosed in the early evening with vehicle (2% DMSO in 0.4% hydroxypropyl methylcellulose) or 30 mg/kg of examples 176, 177, or 178 formulated in vehicle. The next morning (˜16 h post-dose), mice were heavily anesthetized with isoflurane, the peritoneal cavity was opened and gallbladders (with contents) were carefully excised and weighed. Compound levels in gallbladder were analyzed as described in Example 293.

The mark [5] stands for this setting: mice below LLOQ / mice in group.

With `O=C(N1CCN(C2CC2)c2ccccc21)C1(OCc2cc(Cl)ccc2Cl)CC1` [Example 9, (4-cyclopropyl-3,4-dihydroquinoxalin-1(2H)-yl)(1-(2,5-dichlorobenzyloxyl)cyclopropyl)methanone], the EC50 was 0.126 to 1 µM in data set [1], above 50.1 µM at human FXR, above 25.1 µM on human IBAT and below 0.1 µM on human TGR5.
Take `O=C(N1CCN(C2CC2)c2ccccc21)C1(NCc2cc(Cl)ccc2Cl)CC1` [Example 26, (4-cyclopropyl-3,4-dihydroquinoxalin-1(2H)-yl)(1-((2,5-dichlorobenzyl)amino)cyclopropyl)methanone]: the “Number of Mice with Gallbladder Concentration < LLOQ” value in [2] (setting [5]) was 0/8. The concentration at 8 h was determined as 30 nM in data set [2] (male, C57BL/6, mouse, with contents, mice, gallbladder homogenate, read-out: Mean Example Gallbladder Concentration) and 9.1 ng/mL in data set [3] (male, C57BL/6, mouse, mice, plasma, read-out: Mean Example Plasma Concentration). Moreover, the EC50 in [1] is below 0.1 µM; on human FXR, above 50.1 µM; at human IBAT, above 25.1 µM; on human TGR5, below 0.1 µM. Moreover, the “Number of Mice with Plasma Concentration < LLOQ” value in [3] (setting [5]) is given as 0/8. For the same molecule, in the data set with C57BL/6 male mice (8 h, vs. vehicle, one-way ANOVA, Dunnett's test), the “Gallbladder weight/body weight fold change over vehicle, Significance” value was “* (* p < 0.05 vs. vehicle; One-way ANOVA followed by Dunnett's test)”. Besides, the “Gallbladder weight/body weight fold change over vehicle, Mean” value in the data set with C57BL/6 male mice (food removed, eight hours after dosing) amounted to 1.6 fold change over vehicle. In addition, the response vs control in vivo at 30 mg/kg in the data set on total GLP-1 worked out at 160%.
Regarding `O=C(N1CCN(C2CC2)c2ccccc21)C1(COc2cc(Cl)ccc2Cl)CC1` [Example 32, 1-cyclopropyl-4-[[1-(2,5-dichlorophenoxymethyl)cyclopropyl]carbonyl]-1,2,3,4-tetrahydroquinoxaline], the EC50 in data set [1] is 0.126 to 1 µM; at human FXR, above 50.1 µM; on human TGR5, below 0.1 µM.
The corresponding values for `CN(C[C@H](O)[C@@H](O)[C@H](O)[C@H](O)CO)C(=O)CCc1cc(Cl)c(OCC2(C(=O)N3CCN(C4CC4)c4ccccc43)CC2)cc1Cl` [Example 34, 3-[2,5-dichloro-4-([1-[(4-cyclopropyl-1,2,3,4-tetrahydroquinoxalin-1-yl)carbonyl]cyclopropyl]methoxy)phenyl]-N-methyl-N-[(2S,3R,4R,5R)-2,3,4,5,6-pentahydroxyhexyl]propanamide] are 1.26 to 50.1 µM, above 50.1 µM and 0.126 to 1 µM.
In the same order, the values of `O=C(CCc1cc(Cl)c(OCC2(C(=O)N3CCN(C4CC4)c4ccccc43)CC2)cc1Cl)NC[C@H](O)[C@@H](O)[C@H](O)[C@H](O)CO` [Example 75, 3-[2,5-dichloro-4-([1-[(4-cyclopropyl-1,2,3,4-tetrahydroquinoxalin-1-yl)carbonyl]cyclopropyl]methoxy)phenyl]-N-[(2S,3R,4R,5R)-2,3,4,5,6-pentahydroxyhexyl]propanamide] are 0.126 to 1 µM, above 50.1 µM and 0.126 to 1 µM.
On to `CN(C[C@H](O)[C@@H](O)[C@H](O)[C@H](O)CO)C(=O)CCc1cc(Cl)c(COC2(C(=O)N3CCN(C4CC4)c4ccccc43)CC2)cc1Cl` [Example 80, 3-[2,5-dichloro-4-([1-[(4-cyclopropyl-1,2,3,4-tetrahydro-quinoxalin-1-yl)carbonyl]cyclopropoxy]methyl)phenyl]-N-methyl-N-[(2S,3R,4R,5R)-2,3,4,5,6-pentahydroxyhexyl]propanamide], for which the EC50 in data set [1] was 0.126 to 1 µM; on human FXR, above 50.1 µM; at human TGR5, below 0.1 µM.
`O=C(O)CCc1cc(Cl)c(CNC2(C(=O)N3CCN(C4CC4)c4ccccc43)CC2)cc1Cl` [Example 83, 3-(2,5-dichloro-4-(((1-(4-cyclopropyl-1,2,3,4-tetrahydroquinoxaline-1-carbonyl)cyclopropyl)amino)methyl)phenyl)propanoic acid]: in [4], the “Number of Mice with Gallbladder Concentration < LLOQ” value is reported as 0/6 and the concentration at 16 h was found to be 30 nM. Besides, the EC50 in data set [1] is 1.26 to 50.1 µM. For the same molecule, the EC50 on human TGR5 is 0.126 to 1 µM.
Consider `O=C(N1CCCc2cccnc21)C1(OCc2cc(Cl)ccc2Cl)CC1` [Example 85, 1-([1-[(2,5-dichlorophenyl)methoxy]cyclopropyl]carbonyl)-1,2,3,4-tetrahydro-1,8-naphthyridine], for which, in [4], the “Number of Mice with Gallbladder Concentration < LLOQ” value is listed as 0/6 and the concentration at 16 h worked out at 200 nM. For the same molecule, in [1], the EC50 was 1.26 to 50.1 µM. Also, at human TGR5, the EC50 was 0.126 to 1 µM.
For `O=C(CCc1cc(Cl)c(COC2(C(=O)N3CCN(C4CC4)c4ccccc43)CC2)cc1Cl)NC[C@H](O)[C@@H](O)[C@H](O)[C@H](O)CO` [Example 88, 3-[2,5-dichloro-4-([1-[(4-cyclopropyl-1,2,3,4-tetrahydroquinoxalin-1-yl)carbonyl]cyclopropoxy]methyl)phenyl]-N-[(2S,3R,4R,5R)-2,3,4,5,6-pentahydroxyhexyl]propanamide], the EC50 is below 0.1 µM in data set [1], above 50.1 µM on human FXR and below 0.1 µM on human TGR5.
